Here are results for 10 molecules from ChEMBL document CHEMBL1201862, “PubChem BioAssay data set” (2004).

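Values below derive from 48-hour exposures of cells grown in 96-well plates, with endpoints linearly interpolated between the two concentrations bracketing the appropriate inhibition level. The concentration for 50% growth inhibition is given as GI50.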 The source made the active and inactive calls. Cut-off read from the data, not from the text of the source: active = GI50 up to about 1.1 µM and inactive = higher.

Holding throughout (test): DTP human tumour cell line panel, 48 h
Test [1] deals with SK-MEL-28.
The test system of test [2] is MCF7.
Test [3] deals with SF-539.
Test [4] has as its system HCT-15.
Test [5] relates to OVCAR-8.
Test [6] has as its system SNB-75.
In test [7] the test system is HL-60.
Test [8] has as its system MDA-N.
The test system of test [9] is SR.
The subject of test [10] is CCRF-CEM.
Test [11] concerns SK-OV-3.
Test [12] relates to NCI/ADR-RES.
Test [13] deals with T47D.
The test system of test [14] is MDA-MB-231.
Test [15] concerns NCI-H460.
Test [16] relates to PC-3.
The subject of test [17] is A498.
In test [18] the test system is MOLT-4.
Test [19] relates to BT-549.
Test [20] deals with Hs-578T.

As to `C#C/C=C\CCCCCCCCCCCCCC/C=C\CCCCC#CC(O)C#CCCCC/C=C\CCCCCC/C=C/C(O)C#C` (stereo not given), the GI50 (usually the concentration giving 50% growth inhibition) in test [1] is 21 µM (inactive); in test [2] it was 5.62 µM (inactive); in [3] it was 29.6 µM (inactive); in [4] it was 22.5 µM; in [5], 23.3 µM (inactive); in test [6] it was 42.7 µM (inactive). Further, the GI50 in test [7] was 13 µM (inactive); in test [8] it was 3.8 µM (inactive); in [9], 14.1 µM (inactive); in test [10], 5.25 µM (inactive); in test [11], > 75 µM (inactive); in test [12] it was 31.5 µM (inactive). The GI50 is 7.21 µM (inactive) in [13]; 34.2 µM (inactive) in test [14]; 39.9 µM (inactive) in [15]; 19.1 µM (inactive) in test [16]; 30.1 µM (inactive) in test [17]; 10.1 µM (inactive) in test [18]. Further, the GI50 in test [19] was > 71.9 µM (inactive); in test [20], 42.5 µM (inactive).

In the case of `COc1cc(OC(=O)c2ccccc2)cc2c1C(=O)C=CC2=O`, the GI50 is 18.2 µM (inactive) in [1]; 11 µM (inactive) in [2]; 20.1 µM (inactive) in [3]; 11.9 µM in test [4]; 18.9 µM (inactive) in test [5]; 22.6 µM (inactive) in [6]. Also, the GI50 in test [7] was 0.556 µM (active); in test [8], 6.44 µM (inactive); in [9] it was 0.469 µM (active); in [10], 0.543 µM (active); in test [11] it was 20 µM (inactive); in test [12], 15.2 µM (inactive). For the same molecule, the GI50 was 1.89 µM (inactive) in test [13]; 2.29 µM (inactive) in test [14]; 34.2 µM (inactive) in test [15]; 14 µM (inactive) in test [16]; 18.5 µM (inactive) in test [17]; 1.73 µM (inactive) in test [18]. For the same molecule, the figures for the GI50 in [19] and in [20] were 15.8 µM (inactive) and 25.1 µM (inactive), respectively.

In the case of `CCOC(=O)/C(=N\Nc1ccc(-n2c(C)nc3ccc(Br)cc3c2=O)cc1)C(C)=O`, the GI50 in test [1] is 88.7 µM (inactive); in test [2], 50.4 µM (inactive); in test [3], 38.8 µM (inactive); in test [4], 64.4 µM; in test [5] it was 55.2 µM (inactive); in test [6], 30.7 µM (inactive). Besides, the GI50 is 5.32 µM (inactive) in test [7]; 71.1 µM (inactive) in test [8]; 22.3 µM (inactive) in test [9]; 31.1 µM (inactive) in test [10]; > 100 µM (inactive) in [11]; 52 µM (inactive) in [12]. Further, the GI50 in test [13] is 33.1 µM (inactive); in test [14] it was 31.9 µM (inactive); in test [15], 99.3 µM (inactive); in test [16] it was 44.6 µM (inactive); in [17], 52.7 µM (inactive); in [18], 25.2 µM (inactive). The GI50 in test [19] is 47 µM (inactive); in [20], 29.1 µM (inactive).

With `O=[N+]([O-])c1ccc2c(c1)nc(Cc1ccc(Cl)cc1)n2C[C@@H]1CCCN2CCCCC12` (stereo not given in full), the GI50 in test [1] is 14.6 µM (inactive); in test [2], 0.54 µM (active); in [3], 18.4 µM (inactive); in [4], 16 µM; in [5] it was 15.1 µM (inactive); in test [6] it was 15 µM (inactive). Also, the GI50 in test [7] was 28.9 µM (inactive); in test [8], 12.9 µM (inactive); in test [9] it was 22.7 µM (inactive); in test [10], 11.8 µM (inactive); in [11] it was 18.9 µM (inactive); in [12], 13.9 µM (inactive). Further, the GI50 in [13] was 16.7 µM (inactive); in test [14], 16.5 µM (inactive); in [15] it was 14 µM (inactive); in test [16], 20.2 µM (inactive); in test [17], 6.05 µM (inactive); in test [18] it was 10.9 µM (inactive). For the same molecule, the values for the GI50 in [19] and in test [20] were 13 µM (inactive) and 13.5 µM (inactive), respectively.

In the case of `CC(=O)O[C@H]1CCc2c(cc(N)c3c2C(=O)C[C@]2(C)C([C@H](C)CCCC(C)C)CCC32C)C1(C)C` (stereo not given in full), the GI50 is > 100 µM (inactive) in [1]; 57.9 µM (inactive) in test [2]; 71.9 µM (inactive) in test [3]; above 100 µM in test [4]; 33.3 µM (inactive) in test [5]; > 100 µM (inactive) in [6]. For the same molecule, the GI50 in [7] was 66.5 µM (inactive); in test [8], > 100 µM (inactive); in test [9] it was 33.9 µM (inactive); in test [10], > 100 µM (inactive); in test [11], > 100 µM (inactive); in [12], 42.4 µM (inactive). Besides, the GI50 in test [13] is > 100 µM (inactive); in [14] it was > 100 µM (inactive); in test [15], > 100 µM (inactive); in test [16], 72.8 µM (inactive); in test [17], 73.6 µM (inactive); in test [18], > 100 µM (inactive). Besides, the values for the GI50 in test [19] and in [20] were > 100 µM (inactive) and 17.1 µM (inactive), respectively.

Regarding `CCCC(=O)OCC1OC(n2cc(F)c(=O)[nH]c2=O)C(F)C1OC(=O)CCC` (stereo not given), the GI50 in [1] was > 100 µM (inactive); in [2] it was 0.6 µM (active); in [3], 1.63 µM (inactive); in test [4] it was above 100 µM; in test [5] it was 19.6 µM (inactive); in test [6] it was 43.5 µM (inactive). For the same molecule, the GI50 in test [7] was > 100 µM (inactive); in [8], > 100 µM (inactive); in [9], 9.73 µM (inactive); in [10], 7.64 µM (inactive); in test [11] it was > 100 µM (inactive); in test [12] it was 7.48 µM (inactive). For the same molecule, the GI50 in test [13] was > 100 µM (inactive); in [14], > 100 µM (inactive); in test [15], 3.78 µM (inactive); in test [16], > 100 µM (inactive); in [17], 6.38 µM (inactive); in [18] it was > 100 µM (inactive). Further, the GI50 in test [19] is 13.9 µM (inactive); in test [20], 26.5 µM (inactive).

As for `CCC1=[N+](CC)CCN1CC`, the GI50 is > 100 µM (inactive) in [1]; > 100 µM (inactive) in [2]; > 100 µM (inactive) in test [3]; above 100 µM in test [4]; > 100 µM (inactive) in [5]; > 100 µM (inactive) in [6]. The GI50 in test [7], in test [8], in test [9], in [10], in test [11] and in test [12] was > 100 µM (inactive) throughout. The GI50 in [13], in test [14], in [15], in test [16], in [17] and in [18] was > 100 µM (inactive) in each case. For the same molecule, the GI50 in test [19] and in test [20] was > 100 µM (inactive) in each case.

Regarding `C[C@@H]1C[C@H](O)[C@]2(O)O[C@@H]3C[C@@]4(C=O)[C@@H](CC=C5[C@@H]4CC[C@]4(C)[C@@H](C6=CC(=O)OC6)CC[C@]54O)C[C@H]3O[C@@H]2O1`, the GI50 in [1] is 0.128 µM (active); in test [2], < 0.0188 µM (active); in test [3] it was < 0.0166 µM (active); in test [4] it was 0.0175 µM; in test [5], < 0.0205 µM (active); in test [6], 0.112 µM (active). Further, the GI50 is 0.0171 µM (active) in test [7]; 0.042 µM (active) in [8]; < 0.015 µM (active) in test [9]; < 0.01 µM (active) in [10]; 0.0426 µM (active) in test [11]; < 0.0202 µM (active) in test [12]. Also, the GI50 in test [13] is 0.0218 µM (active); in [14] it was 0.144 µM (active); in [15] it was < 0.0129 µM (active); in [16], 0.02 µM (active); in [17], < 0.01 µM (active); in test [18], < 0.01 µM (active). Further, the values for the GI50 in [19] and in test [20] were < 0.015 µM (active) and < 0.01 µM (active), respectively.

For the molecule `COC(=O)C1(Cc2cccc(C)c2)Cc2c(C)cccc2C1=O` (stereo not given), the GI50 in test [1] was > 100 µM (inactive); in test [2] it was 33.7 µM (inactive); in test [3] it was 38.4 µM (inactive); in [4], 32.1 µM; in [5], 80.7 µM (inactive); in [6], 43.3 µM (inactive). Also, the GI50 in test [7] was > 100 µM (inactive); in test [8] it was 14.3 µM (inactive); in test [9], > 100 µM (inactive); in test [10], 61.8 µM (inactive); in [11], 58.6 µM (inactive); in test [12], 24 µM (inactive). For the same molecule, the GI50 in [13] was 28.4 µM (inactive); in test [14], 52.8 µM (inactive); in test [15], 45.4 µM (inactive); in test [16] it was 27.2 µM (inactive); in [17], 34 µM (inactive); in test [18], 36.8 µM (inactive). The GI50 is 56.1 µM (inactive) in test [19] and 38.5 µM (inactive) in test [20].

Consider `CCOC(=O)C(Cc1c2ccccc2cc2ccccc12)(NC(C)=O)C(=O)OCC`, for which the GI50 is > 100 µM (inactive) in test [1]; 2.99 µM (inactive) in test [2]; > 64.6 µM (inactive) in [3]; above 49.3 µM in test [4]; 67.6 µM (inactive) in [5]; > 19.8 µM (inactive) in test [6]. The GI50 in test [7] was 34.4 µM (inactive); in test [8], > 83.9 µM (inactive); in test [9], 70.5 µM (inactive); in test [10], 56.4 µM (inactive); in [11] it was > 100 µM (inactive); in [12], > 50.2 µM (inactive). The GI50 in test [13] was 35.8 µM (inactive); in [14] it was > 23.1 µM (inactive); in [15] it was > 100 µM (inactive); in test [16] it was 50 µM (inactive); in test [17], 55.5 µM (inactive); in test [18] it was 25.8 µM (inactive). The results for the GI50 in [19] and in [20] were 99.8 µM (inactive) and 46.8 µM (inactive), respectively.
